Results: patent publication US20130059812A1 (priority 2010, published 2013)

Assays:
[1] = tested on: wild-type HBV; experiment: microbe, parasite or virus in culture; format: cell-based, Hepatitis B virus (HBV); details: Huh-7 cells, 4th day of transfection, clevudine 0.9 μM
Procedure: About 20˜24 hours before the transfection, Huh-7 cell lines were maintained on 6-well plates to be 4×10^5 cells/well with 70˜80% confluence and then cultured. 2 hours before the transfection, the culture medium was removed from the stabilized cells and replaced with a serum-free medium containing clevudine, adefovir dipivoxil or a combined preparation of clevudine and adefovir dipivoxil in a predetermined dilution to be 2 mL/well. Using lipofectamine (Invitrogen), the cells were transfected with wild-type HBV DNA to be 2 μg per well. The concentration of antiviral agents was 0.9 μM of clevudine, 6.3 μM of adefovir dipivoxil, 0.9 μM+6.3 μM of clevudine+adefovir dipivoxil or 1.8 μM+6.3 μM of clevudine+adefovir dipivoxil. About 5 hours after the transfection, the culture medium was replaced with that treated with the antiviral agents, and then the medium was replaced every 24 hours.
On the 4th day of the transfection, the cells were washed with cold PBS and then collected. […]
Electrophoresis was carried out with the separated HBV DNA on 1% agarose gel, which was then transferred to a positively charged nylon membrane. […] An antiviral effect of the combined formulation of clevudine and adefovir dipivoxil was determined using phosphor imager compared with single treatment of clevudine or adefovir dipivoxil.

[2] = tested on: patient-derived rtM204I mutant virus; format: cell-based, Hepatitis B virus (HBV); details: untreated control group = 100%, Huh-7 cells, 4th day, clevudine 0.9 μM, adefovir dipivoxil 6.3 μM, combination 0.9 μM+6.3 μM
Procedure: About 20˜24 hours before the transfection, Huh-7 cell lines were maintained on 6-well plates to be 4×10^5 cells/well with 70˜80% confluence and then cultured. 2 hours before the transfection, the culture medium was removed from the stabilized cells and replaced with a serum-free medium containing clevudine, adefovir dipivoxil or a combined formulation of clevudine and adefovir dipivoxil in a predetermined dilution to be 2 mL/well. Using lipofectamine (Invitrogen), the cells were transfected with HBV mutant DNA to be 2 μg per well. The concentration of antiviral agents was 0.9 μM of clevudine, 6.3 μM of adefovir dipivoxil, 0.9 μM+6.3 μM of clevudine+adefovir dipivoxil or 1.8 μM+6.3 μM of clevudine+adefovir dipivoxil. About 5 hours after the transfection, the culture medium was replaced with that treated with the antiviral agents, and then the medium was replaced every 24 hours.
On the 4th day of the transfection, the cells were washed with cold PBS and then collected. The collected cells were lysed with cold Hepes lysis buffer (1% NP-40) and then centrifuged. The supernatant was treated with nuclease to remove DNA of the transfected cells. Core protein of capsid form was precipitated with 26% PEG solution. The capsid protein was removed by 0.5% SDS solution and Proteinase K and then HBV DNA in the capsid was separated. […]

[3] = tested on: HBV; experiment: Antiviral efficacy test in the treatment of chronic hepatitis B patients; format: in vivo; details: n=20 per group
Procedure: A total of 40 patients were divided into two groups, to one of which 30 mg of clevudine was administered daily for 24 weeks (group treated with clevudine only; n=20). To another group, a combined formulation of 30 mg of clevudine and 10 mg of adefovir dipivoxil was administered daily for 12 weeks, then administration of adefovir dipivoxil was stopped and only 30 mg of clevudine was administered daily for the remaining period (group treated with combined formulation of clevudine+adefovir dipivoxil; n=20).

## Cc1cn([C@H]2O[C@@H](CO)[C@H](O)[C@H]2F)c(=O)[nH]c1=O [clevudine, 1-(2′-deoxy-2′-fluoro-β-L-arabinofuranosyl)thymine]
[1]; Hepatitis B virus, concentration of the combination not stated, read-out: inhibition rate of wild-type HBV replication
  inhibition at 0.9 µM: 34.1%
[1]; untreated control group = 100%, adefovir dipivoxil 6.3 μM, concentration of the combination not stated (0.9 μM+6.3 μM or 1.8 μM+6.3 μM)
  rate of wild-type HBV replication: 65.91%
[2]
  rate of mutant virus replication: 87.43%
[3]; 12 weeks after the administration, 30 mg clevudine daily, or 30 mg clevudine + 10 mg adefovir dipivoxil daily
  number of HBV DNA copy: −2.67 log 10 copies/mL
[3]; 24 weeks after the administration, 30 mg clevudine daily for 24 weeks, or combination for 12 weeks then only 30 mg clevudine daily
  number of HBV DNA copy: −4.15 log 10 copies/mL
